Data taken from PubChem BioAssay (NCI).
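Interpolation was linear, between the two tested concentrations surrounding the appropriate level; five concentrations were tested over 48 hours in 96-well plates. GI50: concentration for 50% inhibition of growth. TGI marks complete inhibition of growth.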

Columns and labels:
Assay in all cases: DTP human tumour cell line panel, 48 h
[1] = test system: SK-MEL-2 melanoma
[2] = test system: SK-MEL-5 melanoma
[3] = test system: MDA-MB-231 breast
[4] = test system: SNB-19 CNS
[5] = test system: OVCAR-5 ovarian
[6] = test system: U251 CNS
[7] = test system: IGROV1 ovarian
[8] = test system: A549 NSCLC
[9] = test system: SW-620 colon
[10] = test system: OVCAR-3 ovarian

Compound: CCc1c(C)nc2sc3c(N)ncnc3c2c1C
- GI50 [1]: > 25 µM
- TGI [1]: > 25 µM
- GI50 [2]: > 25 µM
- TGI [2]: > 25 µM
- GI50 [3]: > 25 µM
- TGI [3]: > 25 µM
- GI50 [4]: > 25 µM
- TGI [4]: > 25 µM
- GI50 [5]: > 25 µM
- TGI [5]: > 25 µM
- GI50 [6]: > 25 µM
- TGI [6]: > 25 µM
- GI50 [7]: > 25 µM
- TGI [7]: > 25 µM
- GI50 [8]: > 25 µM
- TGI [8]: > 25 µM
- GI50 [9]: > 25 µM
- TGI [9]: > 25 µM
- GI50 [10]: > 25 µM
- TGI [10]: > 25 µM

Compound: FC(F)(F)c1cccc(-c2nn3ncccc3c2-c2ccnc(Nc3ccc4c(c3)OCCO4)n2)c1
- GI50 [1]: > 25 µM
- TGI [1]: > 25 µM
- GI50 [2]: 7.87 µM
- TGI [2]: > 25 µM
- GI50 [3]: 9.02 µM
- TGI [3]: > 25 µM
- GI50 [4]: > 25 µM
- TGI [4]: > 25 µM
- GI50 [5]: > 25 µM
- TGI [5]: > 25 µM
- GI50 [6]: 19.5 µM
- TGI [6]: > 25 µM
- GI50 [7]: 5.38 µM
- TGI [7]: > 22.2 µM
- GI50 [8]: 12.8 µM
- TGI [8]: > 25 µM
- GI50 [9]: 9.68 µM
- TGI [9]: > 25 µM
- GI50 [10]: 13.7 µM
- TGI [10]: > 25 µM

Compound: CC1C=CC(OC(=O)C(C)(O)CCC(O)(C(=O)OC2CC(O)C(C(C)C)CC2(C)O)C(C)C)(C(C)C)CC1 (centres undefined)
- GI50 [1]: 0.769 µM
- TGI [1]: 1.64 µM
- GI50 [2]: 0.377 µM
- TGI [2]: 1.03 µM
- GI50 [3]: 0.656 µM
- TGI [3]: 1.36 µM
- GI50 [4]: 1.19 µM
- TGI [4]: 16.2 µM
- GI50 [5]: 0.665 µM
- TGI [5]: 1.35 µM
- GI50 [6]: 0.582 µM
- TGI [6]: 1.32 µM
- GI50 [7]: 0.232 µM
- TGI [7]: 0.64 µM
- GI50 [8]: 0.567 µM
- TGI [8]: 1.39 µM
- GI50 [9]: 0.604 µM
- TGI [9]: 1.41 µM
- GI50 [10]: 0.188 µM
- TGI [10]: 0.409 µM

Compound: Cc1[nH]nc(-c2ccon2)c1N=O
- TGI [1]: > 100 µM
- TGI [2]: 34.3 µM
- TGI [3]: 32.4 µM
- TGI [4]: 64.8 µM
- TGI [5]: 35.1 µM
- TGI [6]: 32.8 µM
- TGI [7]: 70.1 µM
- TGI [8]: 57.6 µM
- TGI [9]: 49.1 µM
- TGI [10]: 33.7 µM

Compound: COc1cc(C(=O)c2cc(C)c3[nH]c4ccc(O)cc4c3c2C)cc(OC)c1OC
- GI50 [1]: 0.457 µM
- TGI [1]: > 100 µM
- GI50 [2]: 0.0162 µM
- TGI [2]: 0.0637 µM
- GI50 [3]: 0.0355 µM
- GI50 [4]: 0.0289 µM
- TGI [4]: > 47.3 µM
- GI50 [5]: 0.0511 µM
- TGI [5]: > 100 µM
- GI50 [6]: 0.0226 µM
- TGI [6]: > 100 µM
- GI50 [7]: 0.0169 µM
- TGI [7]: 20.5 µM
- GI50 [8]: 0.0191 µM
- TGI [8]: > 100 µM
- GI50 [9]: < 0.0129 µM
- TGI [9]: > 100 µM
- GI50 [10]: < 0.01 µM
- TGI [10]: 2.17 µM

Compound: CN=C1OC2(c3ccccc3)C3=C(OC(=NC)N2C)C(=O)OC3(c2ccccc2)N1C (centres undefined)
- TGI [1]: > 100 µM
- TGI [2]: > 100 µM
- TGI [3]: > 100 µM
- TGI [4]: > 100 µM
- TGI [5]: > 100 µM
- TGI [6]: > 100 µM
- TGI [7]: > 100 µM
- TGI [8]: > 100 µM
- TGI [9]: > 100 µM
- TGI [10]: > 100 µM

Compound: C=CCc1cc(Nc2c3ccc(Cl)cc3nc3ccc(OC)cc23)cc(CN(CC)CC)c1O
- GI50 [1]: 1.9 µM
- TGI [1]: 4.93 µM
- GI50 [2]: 1.24 µM
- TGI [2]: 2.49 µM
- GI50 [3]: 2.35 µM
- TGI [3]: 10.8 µM
- GI50 [4]: 2.03 µM
- TGI [4]: 21.2 µM
- GI50 [5]: 6.75 µM
- TGI [5]: 26 µM
- GI50 [6]: 0.802 µM
- TGI [6]: 10.8 µM
- GI50 [7]: 2.69 µM
- TGI [7]: 21.1 µM
- GI50 [8]: 3.26 µM
- TGI [8]: 13.9 µM
- GI50 [9]: 1.97 µM
- TGI [9]: 11.4 µM
- GI50 [10]: 1.88 µM
- TGI [10]: 11.5 µM

Compound: N/C(=N\OC(=O)c1ccccc1)C(Cc1ccccc1)C(=O)NOC(=O)c1ccccc1 (centres undefined)
- GI50 [1]: 2.16 µM
- TGI [1]: 4.17 µM
- GI50 [2]: 2.72 µM
- TGI [2]: 9.03 µM
- GI50 [3]: 4.6 µM
- TGI [3]: 18.1 µM
- GI50 [4]: 3.55 µM
- TGI [4]: 15.6 µM
- GI50 [5]: 9.1 µM
- TGI [5]: 24.3 µM
- GI50 [6]: 1.36 µM
- TGI [6]: 2.87 µM
- GI50 [7]: 0.43 µM
- TGI [7]: 2.09 µM
- GI50 [8]: 1.52 µM
- TGI [8]: 3.22 µM
- GI50 [9]: 3.02 µM
- TGI [9]: 13.8 µM
- GI50 [10]: 1.8 µM
- TGI [10]: 4.1 µM

Compound: CCOC(=O)c1cc2c(cc1Cl)SC(=Nc1ccccc1)N(S(=O)(=O)c1ccc(Br)s1)S2(=O)=O
- GI50 [1]: 15.8 µM
- TGI [1]: 43.3 µM
- GI50 [2]: 12.1 µM
- TGI [2]: 25.2 µM
- GI50 [3]: 14.1 µM
- TGI [3]: 30.6 µM
- GI50 [4]: 36.6 µM
- TGI [4]: > 100 µM
- GI50 [5]: 22 µM
- TGI [5]: 50.8 µM
- GI50 [6]: 11.7 µM
- TGI [6]: 25.8 µM
- GI50 [7]: 17.7 µM
- TGI [7]: 53.4 µM
- GI50 [8]: 21.4 µM
- TGI [8]: 53.8 µM
- GI50 [9]: 16.6 µM
- TGI [9]: 34.3 µM
- GI50 [10]: 12.2 µM
- TGI [10]: 24.7 µM

Compound: Clc1ccc(C2ON=C(c3ccccc3)N2C23CC4CC(CC(C4)C2)C3)cc1 (centres undefined)
- TGI [1]: > 10 µM
- TGI [2]: > 10 µM
- TGI [3]: > 10 µM
- TGI [4]: > 10 µM
- TGI [5]: > 10 µM
- TGI [6]: > 10 µM
- TGI [7]: > 10 µM
- TGI [8]: > 10 µM
- TGI [9]: > 10 µM
- TGI [10]: > 10 µM

Compound: CC(=O)O[C@@H]1C[C@@]2(C)[C@@H]3CC=C4[C@@H](C[C@H](O)C(=O)C4(C)C)[C@]3(C)C(=O)C[C@]2(C)[C@H]1[C@@](C)(O)C(=O)/C=C/C(C)(C)OC(C)=O
- TGI [1]: > 25.4 µM
- TGI [2]: 11 µM
- TGI [3]: > 21.8 µM
- TGI [4]: 7.38 µM
- TGI [5]: > 86 µM
- TGI [6]: 10.5 µM
- TGI [7]: 10.2 µM
- TGI [8]: > 48.2 µM
- TGI [9]: 35.6 µM
- TGI [10]: > 100 µM

Compound: COc1cc(-c2nn(-c3cccc(NC(=O)CCN4CCN(Cc5ccccc5)CC4)c3)cc2-c2ccncc2)ccc1Cl
- GI50 [1]: 1.39 µM
- TGI [1]: 4.14 µM
- GI50 [2]: 1.1 µM
- TGI [2]: 2.31 µM
- GI50 [3]: 1.64 µM
- TGI [3]: 3.71 µM
- GI50 [4]: 4.42 µM
- TGI [4]: 41.2 µM
- GI50 [5]: 3.02 µM
- TGI [5]: > 100 µM
- GI50 [6]: 0.839 µM
- TGI [6]: 2.76 µM
- GI50 [7]: 0.954 µM
- TGI [7]: 7.88 µM
- GI50 [8]: 1.72 µM
- TGI [8]: 11.6 µM
- GI50 [9]: 0.49 µM
- TGI [9]: 1.93 µM
- GI50 [10]: 0.395 µM
- TGI [10]: 1.77 µM

Compound: CC(C)C[C@H](NC(=O)CCn1ccc2ccccc2c1=O)B(O)O
- GI50 [1]: 3.58 µM
- TGI [1]: 32.5 µM
- GI50 [2]: 4.3 µM
- TGI [2]: 19 µM
- GI50 [3]: 9.45 µM
- TGI [3]: 59.3 µM
- GI50 [4]: 8.02 µM
- TGI [4]: > 100 µM
- GI50 [5]: 18.8 µM
- TGI [5]: > 100 µM
- GI50 [6]: 4.23 µM
- TGI [6]: > 100 µM
- GI50 [7]: 12.3 µM
- TGI [7]: > 100 µM
- GI50 [8]: 8.41 µM
- TGI [8]: > 100 µM
- GI50 [9]: 3 µM
- TGI [9]: 12 µM
- GI50 [10]: 1.97 µM
- TGI [10]: 5.66 µM
